This is an account of results in US4680284A, “Modified phenylalanine peptidylaminodiols” (Abbott Laboratories, priority 1986, dated 1987).

What is called IC50 is the concentration needed to halve the response being measured. Lower therefore signals greater potency in that assay.

This experiment has as its target T1, human renal renin (Homo sapiens, UniProt P00797).
T1 construct: human renal renin, free from acid proteolytic activity; from tissue
T1 sequence (P00797 67-406): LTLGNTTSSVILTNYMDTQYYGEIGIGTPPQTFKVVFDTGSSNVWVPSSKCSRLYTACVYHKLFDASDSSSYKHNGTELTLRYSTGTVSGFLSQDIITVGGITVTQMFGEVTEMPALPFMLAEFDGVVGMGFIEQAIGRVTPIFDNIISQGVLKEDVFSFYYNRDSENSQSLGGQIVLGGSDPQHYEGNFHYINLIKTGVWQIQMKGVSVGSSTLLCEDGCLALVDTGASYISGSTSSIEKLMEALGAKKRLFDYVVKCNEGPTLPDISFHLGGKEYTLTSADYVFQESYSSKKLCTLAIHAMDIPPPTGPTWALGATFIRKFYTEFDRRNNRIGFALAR
In words: In vitro inhibition of human renal renin (angiotensin I formation measured by radioimmunoassay). It is filed as biochemical. Conditions: human renal renin with human renin substrate (angiotensinogen), 37° C., pH 6.0.
`CC(C)C[C@H](O)[C@H](O)[C@H](CC1CCCCC1)NC(=O)[C@H](Cc1c[nH]cn1)NC(=O)C(N)(Cc1ccccc1)Cc1ccccc1` [Example 21, ADBA-His Amide of 2(S)-Amino-1-cyclohexyl-3(R),4(S)-dihydroxy-6-methylheptane]: the midpoint of inhibition, the IC50, lay at 0.025 µM. For `CC(=O)N[C@@](C)(Cc1ccccc1)C(=O)N[C@@H](Cc1c[nH]cn1)C(=O)N[C@@H](CC1CCCCC1)[C@@H](O)[C@@H](O)CC(C)C` [Example 19, Acetyl-AMPA-His Amide of 2(S)-Amino-1-cyclohexyl-3(R),4(S)-dihydroxy-6-methylheptane] the value was 0.009 µM.

`CC(C)C[C@H](O)[C@H](O)[C@H](CC1CCCCC1)NC(=O)[C@H](Cc1c[nH]cn1)NC(=O)C1(N)Cc2ccccc2C1` [Example 7, AICA-His Amide of 2(S)-Amino-1-cyclohexyl-3(R),4(S)-dihydroxy-6-methylheptane] displayed an IC50 of 0.3 µM. For `CC(C)C[C@H](O)[C@H](O)[C@H](CC1CCCCC1)NC(=O)[C@H](Cc1c[nH]cn1)NC(=O)[C@@](C)(N)Cc1ccccc1` [Example 17, AMPA-His Amide of 2(S)-Amino-1-cyclohexyl-3(R),4(S)-dihydroxy-6-methylheptane] the value was 0.01 µM; for `CC(C)C[C@H](O)[C@H](O)[C@H](CC1CCCCC1)NC(=O)[C@H](Cc1c[nH]cn1)NC(=O)C1Cc2ccccc2C(=O)N1` (stereo partly drawn) [Example 15, OTIC-His Amide of 2(S)-Amino-1-cyclohexyl-3(R),4(S)-dihydroxy-6-methylheptane], 0.1 µM; for `CCOC(=O)NC1(C(=O)N[C@@H](Cc2c[nH]cn2)C(=O)N[C@@H](CC2CCCCC2)[C@@H](O)[C@@H](O)CC(C)C)Cc2ccccc2C1` [Example 5, EtOC-AICA-His Amide of 2(S)-Amino-1-cyclohexyl-3(R),4(S)-dihydroxy-6-methylheptane], 0.015 µM.

The compound `CCOC(=O)N1Cc2ccccc2CC1C(=O)N[C@@H](Cc1c[nH]cn1)C(=O)N[C@@H](CC1CCCCC1)[C@@H](O)[C@@H](O)CC(C)C` (stereo partly drawn) [Example 13, EtOC-TIC-His Amide of 2(S)-Amino-1-cyclohexyl-3(R),4(S)-dihydroxy-6-methylheptane] had an IC50 of 0.01 µM. As to `CCOC(=O)NC1(C(=O)N[C@@H](Cc2c[nH]cn2)C(=O)N[C@@H](CC2CCCCC2)[C@@H](O)[C@@H](O)CC(C)C)CCc2ccccc2C1` (stereo partly drawn) [Example 10, EtOC-(R,S)-ATCA-His Amide of 2(S)-Amino-1-cyclohexyl-3(R),4(S)-dihydroxy-6-methylheptane], half-maximal inhibition (IC50) required 0.005 µM.
